Consider ten molecules from patent US7732604B2, “Triazolopyrazine derivatives” (Pfizer Inc., priority 2006, dated 2010).

The first assay deals with T1, HGFR (Homo sapiens, UniProt P08581).
T1 construct: purchased Upstate 14-526
T1 sequence (P08581 974-1390 limits assumed): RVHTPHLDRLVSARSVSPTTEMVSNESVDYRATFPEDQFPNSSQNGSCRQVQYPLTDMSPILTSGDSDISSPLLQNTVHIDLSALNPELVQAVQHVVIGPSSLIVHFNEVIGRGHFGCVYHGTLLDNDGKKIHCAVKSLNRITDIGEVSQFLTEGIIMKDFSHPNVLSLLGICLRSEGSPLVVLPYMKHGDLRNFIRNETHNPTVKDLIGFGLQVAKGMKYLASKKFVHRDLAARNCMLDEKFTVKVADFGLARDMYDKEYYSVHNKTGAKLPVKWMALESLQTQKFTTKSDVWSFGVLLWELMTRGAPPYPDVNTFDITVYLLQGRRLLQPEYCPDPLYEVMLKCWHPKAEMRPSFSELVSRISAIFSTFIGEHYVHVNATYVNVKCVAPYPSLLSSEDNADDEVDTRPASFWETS
In words: HGFR continuous-coupled spectrophotometric assay (tyrosine kinase activity on Met-2 substrate peptide). The following applies: HGFR 50 nM, Met-2 peptide 0.5 mM, ATP 300 μM, 37° C., absorbance 340 nm; read-out: Ki. The assay is classed as biochemical.
As to `FC1(F)CCN(C2CCN(c3cnc4nnn(Cc5ccc6ncccc6c5)c4n3)C2)C1` (stereo not shown) [Example 149, 6-{[6-(3,3-di-fluoro-1,3′-bi-pyrrolidin-1′-yl)-1H-[1,2,3]tri-azolo[4,5-b]pyra-zin-1-yl]meth-yl}quinoline], the Ki was 15 nM.

With `CNC(=O)CCNc1cnc2nnn(Cc3ccc4ncccc4c3)c2n1` [Example 125], the Ki was 15 nM.

As for `C[C@@H](O)CNc1cnc2nnn(Cc3ccc4ncccc4c3)c2n1` [Example 114, (2R)-1-{[1-(quino-lin-6-yl-methyl)-1H-[1,2,3]tri-azolo[4,5-b]pyra-zin-6-yl]ami-no}propan-2-ol], the Ki turned out to be 40 nM.

Turning to `CN(C)c1cnc2nnn(Cc3ccc4ncccc4c3)c2n1` [Example 159, N,N-dimethyl-1-(quino-lin-6-yl-methyl)-1H-[1,2,3]tri-azolo[4,5-b]pyra-zin-6-amine], the Ki was determined as 13 nM.

On to `FC(F)c1nnc2n1CCN(c1cnc3nnn(Cc4ccc5ncccc5c4)c3n1)C2` [Example 108, 6-({6-[3-(di-fluoromethyl)-5,6-di-hydro[1,2,4]tri-azolo[4,3-a]pyrazin-7(8H)-yl]-1H-[1,2,3]tri-azolo[4,5-b]pyra-zin-1-yl}meth-yl)quinoline], for which the Ki came out at 26 nM.

For `NCCNC(=O)c1ccc(-c2cnc3nnn(Cc4ccc5ncccc5c4)c3n2)cc1` [Example 11, N-(2-aminoethyl)-4-(3-(quinolin-6-ylmethyl)-3H-[1,2,3]triazolo[4,5-b]pyrazin-5-yl)benzamide], the inhibitory constant (Ki) was determined as 4 nM.

For the molecule `N#Cc1cnc2nnn(Cc3ccc4ncccc4c3)c2n1` [Example 163, 1-(quinolin-6-yl-methyl)-1H-[1,2,3]tri-azolo[4,5-b]pyra-zine-6-carbonitrile], the Ki is 25 nM.

Turning to `OCC1CCCN1c1cnc2nnn(Cc3ccc4ncccc4c3)c2n1` (stereo not shown) [Example 103, {1-[1-(quinolin-6-yl-methyl)-1H-[1,2,3]tri-azolo[4,5-b]pyra-zin-6-yl]pyrro-lidin-2-yl}methanol], the inhibitory constant (Ki) was 39 nM.

As to `CC(O)CNc1cnc2nnn(Cc3ccc4ncccc4c3)c2n1` (stereo not shown) [Example 174, 1-{[1-(quinolin-6-yl-methyl)-1H-[1,2,3]tri-azolo[4,5-b]pyra-zin-6-yl]ami-no}propan-2-ol], the inhibition constant (Ki) stood at 7 nM.

Staying with this assay, now noted: Ki, HGFR 50 nM, Met-2 peptide 0.5 mM, ATP 300 μM, 37° C., absorbance 340 nm.
Regarding `Cc1nccn1CC1(O)CCN(c2cnc3nnn(Cc4ccc5ncccc5c4)c3n2)C1` (stereo not shown) [Example 104, 3-[(2-methyl-1H-imi-dazol-1-yl)meth-yl]-1-[1-(quino-lin-6-yl-methyl)-1H-[1,2,3]tri-azolo[4,5-b]pyra-zin-6-yl]pyrro-lidin-3-ol], the Ki came out at 49 nM.

For orientation: Ki means the equilibrium dissociation constant of an inhibitor or competing ligand from its target.
